Patent US8067395B2, “Inhibitors of tyrosine kinases and uses thereof” (Pharmacyclics, Inc., priority 2006, dated 2011)
pKi: −log10 of the molar value.

These compounds were tested against Btk (Homo sapiens, UniProt Q06187) (assay: Btk TR-FRET kinase inhibition assay). Conditions: pH 7.4, ATP at the Km for the kinase, 1 μM peptide substrate, [Btk]total=0.5 nM, read-out: Btk-TRFRET (Ki).
Assay type: biochemical
Procedure: Suitable in vitro assays for measuring kinase activity and the inhibition thereof by compounds are known (e.g., see Kuzmic et al. Anal. Biochem. 2000, 286, 45-50).
The following protocol represents an assay for determination of inhibition of kinases under physiological conditions (pH 7.4). Kinase activity was determined using a time-resolved fluorescence resonance energy transfer (TR-FRET) methodology. Measurements were performed in a reaction volume of 50 μL using 96-well assay plates. Kinase enzyme, inhibitor, ATP (at the Km for the kinase), and 1 μM peptide substrate (Biotin-AVLESEEELYSSARQ-NH2) were incubated in a reaction buffer composed of 20 mM Tris, 50 mM NaCl, MgCl2 (5-25 mM depending on the kinase), 1 mM DTT, 0.1 mM EDTA, 0.01% bovine serum albumin, 0.005% Tween-20, and 10% DMSO at pH 7.4 for one hour. The reaction was quenched by the addition of 1.2 equivalents of EDTA (relative to Mg^2+) in 25 μL of 1× Lance buffer (Perkin-Elmer). Streptavidin-APC (Perkin-Elmer) and Eu-labeled p-Tyr100 antibody (Perkin-Elmer) in 1× Lance buffer were added in a 25 μL volume to give final concentrations of 100 nM and 2.5 nM, respectively, and the mixture was allowed to incubate for one hour. The TR-FRET signal was measured on a multimode plate reader with an excitation wavelength of 330 nm and detection wavelengths of 615 nm and 665 nm. Activity was determined by the ratio of the fluorescence at 665 nm to that at 615 nm. For each compound, enzyme activity was measured at various concentrations of compound. Negative control reactions were performed in the absence of inhibitor in replicates of six, and two no-enzyme controls were used to determine baseline fluorescence levels. Inhibition constants were obtained using the program BatchKi (Kuzmic et al. Anal. Biochem. 2000, 286, 45-50). IC50s were obtained according to this equation: IC50={Ki(app)/(1+[ATP]/Km^ATP)}+[E]total/2; for all kinases, [ATP]=Km^ATP, [Btk]total=0.5 nM and [Lck]total=6 nM.

Chain of Btk (Q06187 whole entry): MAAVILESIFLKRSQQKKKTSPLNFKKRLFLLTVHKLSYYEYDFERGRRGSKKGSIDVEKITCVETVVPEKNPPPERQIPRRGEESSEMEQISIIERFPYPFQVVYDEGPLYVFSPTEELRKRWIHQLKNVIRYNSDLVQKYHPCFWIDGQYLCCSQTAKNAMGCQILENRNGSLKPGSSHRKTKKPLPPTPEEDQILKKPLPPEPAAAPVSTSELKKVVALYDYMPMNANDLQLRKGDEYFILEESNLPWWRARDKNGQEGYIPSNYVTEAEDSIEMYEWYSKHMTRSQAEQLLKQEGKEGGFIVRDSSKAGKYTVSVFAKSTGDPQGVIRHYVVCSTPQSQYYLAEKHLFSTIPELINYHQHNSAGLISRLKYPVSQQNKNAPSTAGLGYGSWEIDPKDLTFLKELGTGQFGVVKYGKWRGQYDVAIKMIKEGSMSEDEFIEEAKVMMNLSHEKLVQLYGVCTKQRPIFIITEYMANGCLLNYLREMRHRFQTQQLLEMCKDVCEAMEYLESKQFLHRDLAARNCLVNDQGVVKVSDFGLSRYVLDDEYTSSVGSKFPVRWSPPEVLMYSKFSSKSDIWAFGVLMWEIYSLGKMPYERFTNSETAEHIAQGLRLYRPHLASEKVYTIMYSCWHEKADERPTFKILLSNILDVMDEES

SMILES | pKi
Cc1c(C=NNC(=O)c2cccnc2)[nH]c(=O)c2c1ccc1nc(Nc3c(Cl)cccc3Cl)n(C)c12 [Compound 48, pyridine-3-carboxylic acid [2-(2,6-dichlorophenylamino)-1,6-dimethyl-9-oxo-8,9-dihydro-1H-imidazo[4,5-h]isoquinolin-7-ylmethylene]-hydrazide] | 6.00 to 7.00
C#CCN(C)CC=Cc1[nH]c(=O)c2c(ccc3nc(Nc4ccc(F)cc4C)n(C)c32)c1C [Compound 43, 2-(4-fluoro-2-methylphenylamino)-1,6-dimethyl-7-[3-(N-methyl-N-(prop-2-ynyl)amino)prop-1-enyl]-1,8-dihydro-imidazo[4,5-h]isoquinolin-9-one] | > 7.00
Cc1cc(F)ccc1Nc1nc2ccc3c(C)c(/C=C/CN4CCN(c5ccc(F)cc5)CC4)[nH]c(=O)c3c2n1C [Compound 30, 2-(4-fluoro-2-methylphenylamino)-1,6-dimethyl-7-[3-(N-(4-fluorophenyl)-piperazin-1-yl)-propenyl]-1,8-dihydro-imidazo[4,5-h]isoquinolin-9-one] | > 7.00

The next lines start with the values.

pKi | SMILES
> 7.00 | CCS(=O)(=O)N1CCN(CC=Cc2[nH]c(=O)c3c(ccc4nc(Nc5ccc(F)cc5C)n(C)c43)c2C)CC1 [Compound 35, 2-(4-fluoro-2-methylphenylamino)-1,6-dimethyl-7-[3-(N-(ethylsulfonyl)-piperazin-1-yl)-propenyl]-1,8-dihydro-imidazo[4,5-h]isoquinolin-9-one]
> 7.00 | Cc1cc(Cl)cc(Cl)c1Nc1nc2ccc3c(C)c(C=CCN4CCP(=O)(c5ccccc5)CC4)[nH]c(=O)c3c2n1C [Compound 6, 2-(2,4-dichloro-6-methylphenylamino)-1,6-dimethyl-7-[3-(4-oxo-4-phenyl-4λ^5-[1,4]azaphosphinan-1-yl)-propenyl]-1,8-dihydro-imidazo[4,5-h]isoquinolin-9-one]
